The structures appear in SMILES notation.

What is called IC50 is the concentration that inhibits the measured activity by half. Lower therefore signals greater potency in that assay.

The test addresses protein kinase C. The experiment in a line: inhibition of protein kinase C in vitro (protein kinase-induced incorporation of 32P from [γ-32P]ATP into histone). To be noted: concentration reducing by 50% the protein kinase-induced incorporation of 32P from [γ-32P]ATP into histone. The test is classed as biochemical. An excerpt: The IC50 figures in the following Table, represent that concentration of test compound which reduces by 50% the protein kinase-induced incorporation of ^32 P from [γ-^32 P]ATP into histone.
Compound `Cc1cccc(C2=C(c3cn(C)c4ccccc34)C(=O)NC2=O)c1` [3-(1-methyl-3-indolyl)-4-(3-methylphenyl)-1H-pyrrole-2,5-dione] displayed a half-inhibitory concentration (IC50) of 1000 nM. This lies in the single-digit micromolar range.
In the case of `Cn1cc(C2=C(c3cn(CCCNC(N)=N[N+](=O)[O-])c4ccccc34)C(=O)NC2=O)c2ccccc21` [3-(1-methyl-3-indolyl)-4-[1-[3-(2-nitroguanidino)propyl]-3-indolyl]-1H-pyrrole-2,5-dione], the half-inhibitory concentration (IC50) turned out to be 25 nM. Against the preceding compound, the IC50 is about 40-fold lower.
`Cn1cc(C2=C(c3cn(C)c4ccc(N)cc34)C(=O)NC2=O)c2ccccc21` [3-(5-amino-1-methyl-3-indolyl)-4-(1-methyl-3-indolyl)-1H-pyrrole-2,5-dione]: the concentration for half-maximal inhibition (IC50) turned out to be 600 nM.
Under `Cn1cc(C2=C(c3cn(CCC(N)=O)c4ccccc34)C(=O)NC2=O)c2ccccc21` [3-[1-(2-carbamoylethyl)-3-indolyl]-4-(1-methyl-3-indolyl)-1H-pyrrole-2,5-dione] stands 500 nM.
Regarding `Cn1cc(C2=C(c3cn(CCCN=C=S)c4ccccc34)C(=O)NC2=O)c2ccccc21` [3-[1-(3-isothiocyanatopropyl)-3-indolyl]-4-(1-methyl-3-indolyl)-1H-pyrrole-2,5-dione], the concentration for half-maximal inhibition (IC50) amounted to 8 nM.
The compound `Cn1cc(C2=C(c3cn(CCCSC(=N)N)c4ccccc34)C(=O)NC2=O)c2ccccc21` [3-[1-[3-(amidinothio)propyl]-3-indolyl]-4-(1-methyl-3-indolyl)-1H-pyrrole-2,5-dione] registered a 50% inhibitory concentration (IC50) of 10 nM.

(Values after US5057614A, “Substituted pyrroles” (Hoffmann-La Roche Inc., priority 1988, dated 1991).)
